Results taken from patent publication US20230320956A1, “DIARYLALKANE COMPOUNDS AND COMPOSITIONS FOR USE WITH SKIN AGING AND METHODS OF PRODUCTION THEREOF” (Unigen, Inc., priority 2022, published 2023).

Tested on: keratinocytes (Hacat cell line)
Assay: Global gene expression (RNA-seq) in treated keratinocytes
Assay type: cell-based, human
Details: for Number of Genes Differentially Expressed / Fold Enrichment: 40 μM; for Fold change (gene expression): 40 μM vs untreated
Protocol: To determine specific expression changes dimethoxytolyl propylresorcinol exerted on human keratinocyte aging genes, keratinocytes (Hacat cell line) were treated dimethoxytolyl propylresorcinol at 40 μM and gene expression was analyzed by RNA-seq. Differential gene expression was compared to untreated keratinocytes and cells treated with 40 μM Retinol A to find genes involved in aging. […] Retinol was chosen as a positive control because retinoids have been described as having effective anti-aging and anti-wrinkle effects (Zasada M, 2019). We directly compared the effects of Retinol on keratinocytes with the same concentration of dimethoxytolyl propylresorcinol.

[1] = Gene Cluster Negative regulation of endopeptidase activity
[2] = Gene Cluster Neutrophil chemotaxis
[3] = Gene Cluster O-glycan processing
[4] = Gene Cluster Osteoblast differentiation
[5] = Gene Cluster Positive regulation of angiogenesis
[6] = Gene Cluster Positive regulation of cell migration
[7] = Gene Cluster Positive regulation of cell proliferation
[8] = Gene Cluster Positive regulation of gene expression
[9] = Gene Cluster Positive regulation of smooth muscle cell proliferation
[10] = Gene Cluster Proteinaceous extracellular matrix
[11] = Gene Cluster Transforming growth factor beta receptor binding

Compound: COc1ccc(CCCc2ccc(O)cc2O)c(OC)c1C [dimethoxytolyl propylresorcinol, 1-(3-methyl-2,4-dimethoxyphenyl)-3-(2′,4′-dihydroxyphenyl)-propane]
- Number of Genes Differentially Expressed (Gene Cluster Negative regulation of cell proliferation): 47
- Fold Enrichment [1]: 2.42 fold
- Number of Genes Differentially Expressed [1]: 16
- Fold Enrichment [2]: 3.33 fold
- Number of Genes Differentially Expressed [2]: 12
- Fold Enrichment [3]: 3.05 fold
- Number of Genes Differentially Expressed [3]: 10
- Fold Enrichment [4]: 2.64 fold
- Number of Genes Differentially Expressed [4]: 15
- Fold Enrichment [5]: 3.02 fold
- Number of Genes Differentially Expressed [5]: 19
- Fold Enrichment [6]: 2.88 fold
- Number of Genes Differentially Expressed [6]: 29
- Fold Enrichment [7]: 1.96 fold
- Number of Genes Differentially Expressed [7]: 50
- Fold Enrichment [8]: 1.82 fold
- Number of Genes Differentially Expressed [8]: 26
- Fold Enrichment [9]: 4.88 fold
- Number of Genes Differentially Expressed [9]: 16
- Fold Enrichment [10]: 2.47 fold
- Number of Genes Differentially Expressed [10]: 35
- Fold Enrichment (Gene Cluster Response to drug): 2.04 fold
- Number of Genes Differentially Expressed (Gene Cluster Response to drug): 34
- Fold Enrichment [11]: 4.82 fold
- Number of Genes Differentially Expressed [11]: 11
- Fold Enrichment (Gene Cluster Wound healing): 3.20 fold
- Number of Genes Differentially Expressed (Gene Cluster Wound healing): 14
- Fold change (gene expression) (HAS2 - hyaluronan synthase 2, ECM): 5.48 fold
- Fold change (gene expression) (HAS3 - hyaluronan synthase 3, ECM): 3.59 fold
- Fold change (gene expression) (HBEGF - Heparin-binding EGF-like growth factor, Growth): 8.61 fold
- Fold change (gene expression) (HIF1A - Hypoxia-inducible factor 1 subunit alpha, Oxidative stress): 1.36 fold
- Fold change (gene expression) (HMOX1 - Heme oxygenase 1, Oxidative stress): 5.23 fold
- Fold change (gene expression) (HS3ST1 - Heparan sulfate-glucosamine 3-sulfotransferase 1, ECM): 2.28 fold
- Fold change (gene expression) (IL1A - Interleukin 1 alpha, Cytokine signaling): 6.60 fold
- Fold change (gene expression) (IL1RL1 - Interleukin 1 receptor-like 1, Immune signaling): 17.29 fold
- Fold change (gene expression) (ITGA6 - Integrin subunit alpha 6, Cell adhesion): 1.44 fold
- Fold change (gene expression) (ITGBL1 - Integrin subunit beta-like 1, Cell adhesion): 0.68 fold
- Fold change (gene expression) (KIF13A - Kinesin family member 13A, Cytoskeleton/secretion): 0.67 fold
- Fold change (gene expression) (LAMA3 - Laminin subunit alpha 3, ECM): 1.59 fold
- Fold change (gene expression) (LAMC2 - Laminin subunit gamma 2, ECM): 2.72 fold
- Fold change (gene expression) (NGF - Nerve growth factor, Growth): 113.25 fold
- Fold change (gene expression) (NID2 - Nidogen 2 precursor, ECM): 1.45 fold
- Fold change (gene expression) (OCLN - Occludin, Skin barrier): 1.42 fold
- Fold change (gene expression) (OLFM4 - Olfactomedin 4, ECM): 0.10 fold
- Fold change (gene expression) (PARP15 - Poly (ADP-Ribose) polymerase family member 15, DNA damage repair/transcription regulation): 98.2 fold
- Fold change (gene expression) (PI3 - Peptidase inhibitor 3, elastase inhibitor, Elastin genes): 10.5 fold
- Fold change (gene expression) (PSAPL1 - Prosaposin-like 1, ECM): 0.30 fold
- Fold change (gene expression) (PSG5 - Pregnancy specific beta-1-glycoprotein 5, ECM): 0.30 fold
- Fold change (gene expression) (PTPRR - Protein tyrosine phosphatase receptor type R, Negative regulation of growth): 3.96 fold
- Fold change (gene expression) (RAPGEF3 - Rap guanine nucleotide exchange factor 3, Plasma membrane fusion/cytoskeleton): 1.78 fold
- Fold change (gene expression) (SELE - E-Selectin, Cell adhesion): 99.30 fold
- Fold change (gene expression) (SEMA3D - Semaphorin 3D, ECM/Nerve growth): 0.54 fold
- Fold change (gene expression) (SERPINB2 - Serpin family B member 2, Skin barrier): 4.25 fold
- Fold change (gene expression) (SERPINB4 - Serpin family B member 4, Skin barrier): 6.37 fold
- Fold change (gene expression) (SIRT1 - Sirtuin 1, Transcription regulation): 1.30 fold
- Fold change (gene expression) (SIRT7 - Sirtuin 7, Transcription regulation): 1.41 fold
- Fold change (gene expression) (SOD2 - Superoxide dismutase 2, Oxidative stress): 1.54 fold
- Fold change (gene expression) (TFP12 - Tissue factor pathway inhibitor 2, ECM): 2.37 fold
- Fold change (gene expression) (TGFB1 - Transforming growth factor beta 1, TGF-β signaling): 1.30 fold
- Fold change (gene expression) (TLR4 - Toll-like receptor 4, Immune signaling): 3.41 fold
- Fold change (gene expression) (TNC - Tenascin C, ECM/Nerve growth): 0.50 fold
- Fold change (gene expression) (TP73 - Tumor protein P73, Growth): 0.35 fold
- Fold change (gene expression) (TXNRD1 - Thioredoxin reductase 1, Oxidative stress): 1.52 fold
- Fold change (gene expression) (UGCG - UDP-glucose ceramide glucosyltransferase, Lipid metabolism and transport): 1.56 fold
- Fold change (gene expression) (VIT - Vitrin, ECM): 0.08 fold
